Test results taken from patent US20180169085A1, “Combination Therapy for Hemorrhagic Injury” (Augusta University Reserch Institute, Inc., priority 2016, published 2018).
“Also recorded” adds a separate entry of the source.

Assays:
[1] = tested on: rats subjected to hemorrhagic injury (HI); test: Survival after hemorrhagic injury without resuscitation; format: in vivo, rat; settings: p<0.05 versus HI+Veh; for survival time: FIG. 4
From the text: Male Sprague Dawley rats (250-350 g) were obtained from Charles River Laboratory (Wilmington, Mass., USA). […] All animals were housed in Augusta University animal facility during the experiments.
The animals were fasted overnight (water allowed ad libitum) prior to the sham or hemorrhagic injury (HI) procedure. […] Femoral vein was cannulated to administer fluids. Surgical sites were bathed with bupivacaine. Sham animals were not subjected to bleeding or resuscitation. Upon awakening, the animals in HI groups were bled rapidly within the first 10 min to a MAP of 40±5 mmHg. The bleeding was continued for 45 min, maintaining the low MAP, until 60% of circulatory blood volume was withdrawn. The animals were maintained in the state of shock by maintaining MAP at 40±5 for another 45 min. During this time not more than 40% of the shed blood volume in the form of Ringer lactate was given to maintain the blood pressure. Resuscitation was performed with Ringer lactate for one hour on animals in the respective groups. Vehicle (dimethyl sulfoxide [DMSO]; 120 μL/mouse) or drug was administered at 10 min from the onset of resuscitation or immediately after shock period when there was no resuscitation.
Rats were subjected to HI and Veh, RSV or SRT1720 administered (n=5-6). (RSV: 10 mg/Kg body weight; SRT1720: 2 mg/Kg body weight.

[2] = tested on: rats subjected to hemorrhagic injury (HI); test: Cardiac function (dP/dt) after hemorrhagic injury in rat model; format: in vivo; settings: RSV treatment vs HI+Veh, n=4-6, p<0.05 vs sham, FIG. 1
From the text: (§1) Male Sprague Dawley rats (250-350 g) were obtained from Charles River Laboratory (Wilmington, Mass., USA). The experiments performed in this study including surgical procedures were approved by the Institutional Animal Care and Use Committee (IACUC) at Augusta University. All animals were housed in Augusta University animal facility during the experiments. The animals were fasted overnight (water allowed ad libitum) prior to the sham or hemorrhagic injury (HI) procedure. Hemorrhagic procedure was as described before with some modification (Jian, B. et al., Mol. Med., 18:209-14 (2012). The animals were anesthetized with 2.5% isoflurane (Henry Schein, Dublin, Ohio, USA) and were placed on Plexiglas plate in a supine position. Isoflurane was administered in oxygen using an anesthetic vaporizer. Midline laparotomy (5 cm) was performed in both sham and HI animals to induce soft tissue trauma. Incision was closed aseptically in two layers with sutures. Two femoral arteries and one femoral vein were cannulated (PE-50 tubing), one artery was hooked up to a Blood Pressure Analyzer (Digi-Med; Micro-Med Inc., Louisville, Ky., USA) to monitor mean arterial pressure (MAP) and bleeding was performed through the other artery. Femoral vein was cannulated to administer fluids. Surgical sites were bathed with bupivacaine. Sham animals were not subjected to bleeding or resuscitation. […]

[3] = tested on: rats subjected to hemorrhagic injury (HI); test: 10-day survival study after hemorrhagic injury with resuscitation; format: in vivo, rat
From the text: Male Sprague Dawley rats (250-350 g) were obtained from Charles River Laboratory (Wilmington, Mass., USA). The experiments performed in this study including surgical procedures were approved by the Institutional Animal Care and Use Committee (IACUC) at Augusta University. All animals were housed in Augusta University animal facility during the experiments.
as §1, with “The” for “Male Sprague Dawley rats (250-350 g) were obtained from Charles River Laboratory (Wilmington, Mass., USA). The experiments performed in this study including surgical procedures were approved by the Institutional Animal Care and Use Committee (IACUC) at Augusta University. All animals were housed in Augusta University animal facility during the experiments. The”

O=C(Nc1ccccc1-c1cn2c(CN3CCNCC3)csc2n1)c1cnc2ccccc2n1 [SRT1720]
survival time ([1]; SRT1720 2 mg/Kg body weight, without resuscitation): Prolong Life

O=C(O)c1cccnc1 [niacin, nicotinic acid]
survival ([1]; niacin 1, 5, 10 mg/kg, without resuscitation, all curves, FIG. 6): prolonged survival

Oc1ccc(/C=C/c2cc(O)cc(O)c2)cc1 [resveratrol, 3,5,4-tribydroxystilbene]
+dp/dt and −dp/dt [2]: restored | mean weight gain ([3]; 10-day survival study, RSV 10 mg/kg, data not shown): significantly improved | mortality ([3]; 10-day survival, RSV 10 mg/kg body weight along with resuscitation fluid, p<0.05, FIG. 3): reduce mortality significantly; also recorded: significantly reduced | survival time ([1]; RSV 10 mg/Kg body weight, absence of resuscitation): survived for a significantly longer period of time
